Laboratory results: patent US20220409617A1, “Drug Formulations and Methods of Treatment for Metabolic Disorders” (The Regents of the University of California, priority 2019, published 2022)

System: hepatic mitochondria
Assay: Hepatic mitochondrial morphology (NADH/NADPH autofluorescence) after acute treatment
Assay type: in vivo, mouse
Experimental: To determine whether sphingolipid-like compound 893 also protects from ceramide-induced mitochondrial fragmentation in vivo, a cohort of mice with diet-induced obesity was analyzed. Male, C57BL/6J mice were fed a 45% kcal from fat rodent diet (HFD) or a standard chow diet (10% kcal from fat) for 22-26 weeks. Mitochondrial morphology was compared in freshly resected livers from vehicle- or sphingolipid-like compound 893-treated mice using NADH/NADPH autofluorescence and confocal microscopy. When evaluating mitochondrial morphology, light microscopy has two, significant advantages over electron microscopy: 1) the 3D architecture of the mitochondrial network is readily apparent, and 2) quantitative measurements of mitochondrial shape can be made in a large number of cells in an automated and unbiased manner using image analysis software (FIG. 11). […]
MEFs were washed twice with PBS and fixed with 4% paraformaldehyde for 10 min at RT. […] NADH/NADPH autofluorescence was detected with 740 nm excitation and 450±50 nm detectors using a Mai Tai two-photon laser. Fluorescence microscopy was performed on a Zeiss LSM 780 confocal using a 63× oil objective with a […] numerical aperture (NA) or using a Nikon TE2000-S inverted epifluorescence microscope with a 100× oil objective (1.3 NA) and a Photometrics CoolSNAP ES2 monochrome CCD camera. […]

SMILES: CCCCCCCCc1ccc([C@H]2CCN[C@@H]2CO)cc1.Cl [compound 893]
- Hepatic mitochondrial morphology (aspect ratio, roundness), HFD-fed mice (single oral dose 120 mg/kg at ZT8.5, HFD-fed, treatment-naive mice): increasing their tubularity (increased aspect ratio) and reducing their roundness to match controls fed standard chow
- Hepatic mitochondrial morphology, lean SD-fed mice (single oral dose 120 mg/kg, mice consuming the SD): did not significantly alter hepatic mitochondrial morphology
